For the data set the following is noted: mouse, in vivo, iv.

Regarding Ac-WDLIQLIVSDGSDLIQLIVSD-NH2 [12B], the half-life in blood was below 10 min.

(Values after paper PMC7275043 (Nature Communications, 2020).)
